# Calls of active or inactive are those of the source. The rule behind the calls is not given here.
# What was measured:
# [1] = tested on: Candida albicans; assay: Antifungal activity against Candida albicans MTCC 3018 assessed as growth inhibition at 10 ug/disk after 48 hr by disk diffusion method; format: functional; conditions: MTCC 3018, 48 h, read-out: DIZ
# [2] = tested on: Goffeauzyma gastrica; assay: Antifungal activity against Cryptococcus gastricus MTCC 1715 assessed as growth inhibition at 10 ug/disk after 48 hr by disk diffusion method; format: functional; conditions: MTCC 1715, 48 h, read-out: DIZ
# [3] = tested on: Saccharomyces cerevisiae; assay: Antifungal activity against Saccharomyces cerevisiae MTCC 172 assessed as growth inhibition at 10 ug/disk after 48 hr by disk diffusion method; format: functional; conditions: MTCC 172, 48 h, read-out: DIZ
# [4] = tested on: Goffeauzyma gastrica; assay: Antifungal activity against Cryptococcus gastricus MTCC 1715 assessed as growth inhibition after 48 hr by broth dilution method; format: functional
# [5] = tested on: Saccharomyces cerevisiae; assay: Antifungal activity against Saccharomyces cerevisiae MTCC 172 assessed as growth inhibition at 2 mg/mL after 48 hr by disk diffusion method; format: functional; conditions: for zone of inhibition at 2000 µg/mL: MTCC 172, 48 h, read-out: DIZ
# [6] = tested on: Staphylococcus aureus; assay: Antibacterial activity against Staphylococcus aureus MTCC 96 assessed as growth inhibition at 2 mg/mL after 24 hr by disk diffusion method; format: functional; conditions: MTCC 96, 24 h, read-out: DIZ
# [7] = tested on: Bacillus subtilis; assay: Antibacterial activity against Bacillus subtilis MTCC 2451 assessed as growth inhibition at 2 mg/mL after 24 hr by disk diffusion method; format: functional; conditions: for zone of inhibition at 2000 µg/mL: MTCC 2451, 24 h, read-out: DIZ
# [8] = tested on: Candida albicans; assay: Antifungal activity against Candida albicans MTCC 3018 assessed as growth inhibition at 2 mg/mL after 48 hr by disk diffusion method; format: functional
# [9] = tested on: Bacillus subtilis; assay: Antibacterial activity against Bacillus subtilis MTCC 2451 assessed as growth inhibition after 24 hr by broth dilution method; format: functional; conditions: MTCC 2451, 24 h
# [10] = tested on: Pseudomonas aeruginosa; assay: Antibacterial activity against Pseudomonas aeruginosa MTCC 2642 assessed as growth inhibition at 2 mg/mL after 24 hr by disk diffusion method; format: functional; conditions: for zone of inhibition at 2000 µg/mL: MTCC 2642, 24 h, read-out: DIZ
# [11] = tested on: Escherichia coli; assay: Antibacterial activity against Escherichia coli MTCC 82 assessed as growth inhibition at 2 mg/mL after 24 hr by disk diffusion method; format: functional; conditions: for zone of inhibition at 2000 µg/mL: MTCC 82, 24 h, read-out: DIZ
# [12] = tested on: Staphylococcus aureus; assay: Antibacterial activity against Staphylococcus aureus MTCC 96 assessed as growth inhibition after 24 hr by broth dilution method; format: functional; conditions: MTCC 96, 24 h
# [13] = tested on: Pseudomonas aeruginosa; assay: Antibacterial activity against Pseudomonas aeruginosa MTCC 2642 assessed as growth inhibition after 24 hr by broth dilution method; format: functional
# [14] = tested on: Escherichia coli; assay: Antibacterial activity against Escherichia coli MTCC 82 assessed as growth inhibition after 24 hr by broth dilution method; format: functional; conditions: MTCC 82, 24 h
# [15] = tested on: Salmonella typhi; assay: Antibacterial activity against Salmonella enterica subsp. enterica serovar Typhi MTCC 1251 assessed as growth inhibition at 2 mg/mL after 24 hr by disk diffusion method; format: functional, organism-based
# [16] = tested on: Candida albicans; assay: Antifungal activity against Candida albicans MTCC 3018 assessed as growth inhibition after 48 hr by broth dilution method; format: functional
# [17] = tested on: Goffeauzyma gastrica; assay: Antifungal activity against Cryptococcus gastricus MTCC 1715 assessed as growth inhibition at 2 mg/mL after 48 hr by disk diffusion method; format: functional
# [18] = tested on: Salmonella typhi; assay: Antibacterial activity against Salmonella enterica subsp. enterica serovar Typhi MTCC 1251 assessed as growth inhibition after 24 hr by broth dilution method; format: functional, organism-based
# [19] = tested on: Saccharomyces cerevisiae; assay: Antifungal activity against Saccharomyces cerevisiae MTCC 172 assessed as growth inhibition after 48 hr by broth dilution method; format: functional
# [20] = tested on: OVCAR-5; assay: Cytotoxicity against Homo sapiens (human) OVCAR5 cells assessed as growth inhibition at 100 uM after 48 hr by SRB assay; format: functional; conditions: OVCAR-5, 48 h, read-out: GI
# [21] = tested on: MCF7; assay: Cytotoxicity against Homo sapiens (human) MCF7 cells assessed as growth inhibition at 10 uM after 48 hr by SRB assay; format: functional; conditions: MCF7, 48 h, read-out: GI
# [22] = tested on: MCF7; assay: Cytotoxicity against Homo sapiens (human) MCF7 cells assessed as growth inhibition at 50 uM after 48 hr by SRB assay; format: functional; conditions: MCF7, 48 h, read-out: GI
# [23] = tested on: THP-1; assay: Cytotoxicity against Homo sapiens (human) THP1 cells assessed as growth inhibition at 30 uM after 48 hr by SRB assay; format: functional; conditions: THP-1, 48 h, read-out: GI
# [24] = tested on: MCF7; assay: Cytotoxicity against Homo sapiens (human) MCF7 cells assessed as growth inhibition after 48 hr by SRB assay; format: functional, cell-based; conditions: MCF7, 48 h
# [25] = tested on: CV-1; assay: Cytotoxicity against Chlorocebus aethiops (African green monkey) CV1 cells assessed as growth inhibition at 50 uM after 48 hr by SRB assay; format: functional; conditions: CV-1, 48 h, read-out: GI
# [26] = tested on: THP-1; assay: Cytotoxicity against Homo sapiens (human) THP1 cells assessed as growth inhibition at 10 uM after 48 hr by SRB assay; format: functional; conditions: THP-1, 48 h, read-out: GI
# [27] = tested on: OVCAR-5; assay: Cytotoxicity against Homo sapiens (human) OVCAR5 cells assessed as growth inhibition at 10 uM after 48 hr by SRB assay; format: functional; conditions: OVCAR-5, 48 h, read-out: GI
# [28] = tested on: OVCAR-5; assay: Cytotoxicity against Homo sapiens (human) OVCAR5 cells assessed as growth inhibition at 50 uM after 48 hr by SRB assay; format: functional; conditions: OVCAR-5, 48 h, read-out: GI
# [29] = tested on: MCF7; assay: Cytotoxicity against Homo sapiens (human) MCF7 cells assessed as growth inhibition at 100 uM after 48 hr by SRB assay; format: functional; conditions: MCF7, 48 h, read-out: GI
# [30] = tested on: OVCAR-5; assay: Cytotoxicity against Homo sapiens (human) OVCAR5 cells assessed as growth inhibition at 30 uM after 48 hr by SRB assay; format: functional; conditions: OVCAR-5, 48 h, read-out: GI
# [31] = tested on: CV-1; assay: Cytotoxicity against Chlorocebus aethiops (African green monkey) CV1 cells assessed as growth inhibition at 30 uM after 48 hr by SRB assay; format: functional; conditions: CV-1, 48 h, read-out: GI
# [32] = tested on: CV-1; assay: Cytotoxicity against Chlorocebus aethiops (African green monkey) CV1 cells assessed as growth inhibition at 100 uM after 48 hr by SRB assay; format: functional; conditions: CV-1, 48 h, read-out: GI
# [33] = tested on: MCF7; assay: Cytotoxicity against Homo sapiens (human) MCF7 cells assessed as growth inhibition at 30 uM after 48 hr by SRB assay; format: functional; conditions: MCF7, 48 h, read-out: GI
# [34] = tested on: A549; assay: Cytotoxicity against Homo sapiens (human) A549 cells assessed as growth inhibition at 100 uM after 48 hr by SRB assay; format: functional; conditions: A549, 48 h, read-out: GI
# [35] = tested on: THP-1; assay: Cytotoxicity against Homo sapiens (human) THP1 cells assessed as growth inhibition at 50 uM after 48 hr by SRB assay; format: functional; conditions: THP-1, 48 h, read-out: GI
# [36] = tested on: THP-1; assay: Cytotoxicity against Homo sapiens (human) THP1 cells assessed as growth inhibition after 48 hr by SRB assay; format: functional, cell-based; conditions: THP-1, 48 h
# [37] = tested on: THP-1; assay: Cytotoxicity against Homo sapiens (human) THP1 cells assessed as growth inhibition at 100 uM after 48 hr by SRB assay; format: functional; conditions: THP-1, 48 h, read-out: GI
structure (smiles),measurement,setting,value
OC(Cn1cncn1)(Cn1cncn1)c1ccc(F)cc1F [FLUCONAZOLE],zone of inhibition at 10 µg/disc,[1],20 mm
same,zone of inhibition at 10 µg/disc,[2],19.7 mm
same,zone of inhibition at 10 µg/disc,[3],21 mm
O=Cc1ccc(CO)o1 [AES-103],MIC,[4],inactive
same,zone of inhibition at 2000 µg/mL,[5],8.1 mm
same,zone of inhibition at 2000 µg/mL,[6],13.1 mm
same,zone of inhibition at 2000 µg/mL,[7],11.5 mm
same,growth inhibition (GI),[8],inactive
same,MIC,[9],100 µg/mL
same,growth inhibition (GI),[10],inactive
same,zone of inhibition at 2000 µg/mL,[11],9 mm
same,MIC,[12],200 µg/mL
same,MIC,[13],inactive
same,MIC,[14],400 µg/mL
same,growth inhibition (GI),[15],inactive
same,MIC,[16],inactive
same,growth inhibition (GI),[17],inactive
same,MIC,[18],inactive
same,MIC,[19],inactive
CC(=O)NC12C=CC(=O)C=CC1c1c(cc(O)c(O)c1O)CC2C (stereo unspecified),inhibition of growth at 100 µM,[20],43%
same,inhibition of growth at 10 µM,[21],26%
same,inhibition of growth at 50 µM,[22],52%
same,MIC,"[4]; MTCC 1715, 48 h",50 µg/mL
same,inhibition of growth at 30 µM,[23],55%
same,zone of inhibition at 2000 µg/mL,[5],16.9 mm
same,zone of inhibition at 2000 µg/mL,[6],15.7 mm
same,zone of inhibition at 2000 µg/mL,[7],17.5 mm
same,IC50,[24],50 µg/mL
same,inhibition of growth at 50 µM,[25],19%
same,zone of inhibition at 2000 µg/mL,"[8]; MTCC 3018, 48 h, read-out: DIZ",18.9 mm
same,MIC,[9],50 µg/mL
same,inhibition of growth at 10 µM,[26],48%
same,zone of inhibition at 2000 µg/mL,[10],11.9 mm
same,inhibition of growth at 10 µM,[27],9%
same,inhibition of growth at 50 µM,[28],33%
same,inhibition of growth at 100 µM,[29],70%
same,inhibition of growth at 30 µM,[30],17%
same,zone of inhibition at 2000 µg/mL,[11],13.3 mm
same,MIC,[12],25 µg/mL
same,inhibition of growth at 30 µM,[31],13%
same,inhibition of growth at 100 µM,[32],35%
same,inhibition of growth at 30 µM,[33],33%
same,inhibition of growth at 100 µM,[34],23%
same,MIC,"[13]; MTCC 2642, 24 h",> 100 µg/mL
same,inhibition of growth at 50 µM,[35],67%
same,MIC,[14],100 µg/mL
same,growth inhibition (GI),[15],inactive
same,MIC,"[16]; MTCC 3018, 48 h",12.5 µg/mL
same,zone of inhibition at 2000 µg/mL,"[17]; MTCC 1715, 48 h, read-out: DIZ",15.3 mm
same,IC50,[36],30 µg/mL
same,MIC,[18],inactive
same,MIC,"[19]; MTCC 172, 48 h",25 µg/mL
same,inhibition of growth at 100 µM,[37],80%
CC(C)[C@@H](C)/C=C/[C@@H](C)[C@H]1CC[C@H]2C3=CC=C4C[C@@H](O)CC[C@]4(C)[C@H]3CC[C@]12C [ERGOSTEROL],growth inhibition (GI),[5],inactive
same,zone of inhibition at 2000 µg/mL,[6],11.2 mm
same,growth inhibition (GI),[7],inactive
same,growth inhibition (GI),[8],inactive
same,zone of inhibition at 2000 µg/mL,[10],8.7 mm
same,growth inhibition (GI),[11],inactive
same,growth inhibition (GI),[15],inactive
same,growth inhibition (GI),[17],inactive
